Data set [1] addresses T1, M1 receptors (Rattus norvegicus, UniProt P08482).
T1 sequence (P08482 1-460): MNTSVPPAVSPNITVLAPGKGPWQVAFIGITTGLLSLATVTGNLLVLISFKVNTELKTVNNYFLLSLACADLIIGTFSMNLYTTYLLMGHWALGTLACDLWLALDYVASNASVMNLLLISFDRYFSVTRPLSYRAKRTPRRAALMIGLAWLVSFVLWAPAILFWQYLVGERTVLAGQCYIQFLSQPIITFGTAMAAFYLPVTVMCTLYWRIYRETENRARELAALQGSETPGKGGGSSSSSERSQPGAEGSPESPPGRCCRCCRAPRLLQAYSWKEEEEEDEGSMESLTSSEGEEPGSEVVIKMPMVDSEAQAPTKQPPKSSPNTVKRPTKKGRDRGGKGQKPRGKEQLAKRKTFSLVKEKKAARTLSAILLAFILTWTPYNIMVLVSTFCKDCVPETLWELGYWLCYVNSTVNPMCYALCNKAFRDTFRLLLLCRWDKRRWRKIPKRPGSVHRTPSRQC
Nature of the data set: biochemical. It is filed as binding.

The target of data set [2] is T2, M2 receptors (Rattus norvegicus, UniProt P10980).
T2 sequence (P10980 1-466): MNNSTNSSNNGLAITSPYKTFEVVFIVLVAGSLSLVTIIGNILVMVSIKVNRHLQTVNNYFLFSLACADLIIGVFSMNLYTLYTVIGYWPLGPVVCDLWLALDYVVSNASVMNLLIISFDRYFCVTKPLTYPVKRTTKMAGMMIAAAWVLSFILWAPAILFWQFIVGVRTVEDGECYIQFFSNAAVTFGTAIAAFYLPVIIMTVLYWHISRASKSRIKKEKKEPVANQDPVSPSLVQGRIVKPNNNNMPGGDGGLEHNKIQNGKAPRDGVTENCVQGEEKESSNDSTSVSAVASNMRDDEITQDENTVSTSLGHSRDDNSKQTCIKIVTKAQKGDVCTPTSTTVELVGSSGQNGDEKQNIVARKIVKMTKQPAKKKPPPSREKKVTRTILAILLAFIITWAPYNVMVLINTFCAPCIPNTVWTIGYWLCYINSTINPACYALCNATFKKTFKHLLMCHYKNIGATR
The data set can be described thus: biochemical. It is filed as binding.

The test system of data set [3] is reserpine-induced ptosis in mice. The data set can be described thus: Anti-reserpine effect: antagonistic effect against reserpine-induced ptosis. It is filed as in vivo, mouse (ddY strain). The note with it: for Maximum inhibition rate (%): reserpine 2 mg/kg s.c., 90 minutes. The source says:
It is considered that the sedation caused by the administration of reserpine or tetrabenazine to mice or rats produces an effect similar to the symptoms of clinical depression. Of the various pharmacological effects caused by these compounds, ptosis (drooping of the upper eyelid) and a reduction in body temperature have been widely used as indices of their activity, and it has been shown that any compound which inhibits either ptosis or lowering of the body temperature will also be active against the symptoms of clinical depression. Therefore, anti-reserpine or anti-tetrabenazine effects have been widely used for a long time as a method of screening for antidepressants. The test index used for the evaluation of the compounds of the present invention is the antagonistic effect of a test compound against reserpine-induced ptosis in mice.
The test animals employed were mature male mice of the ddY strain, 4 weeks old and each weighing 22 to 27 g. The animals were divided into groups, each including 3 mice. The compound under test was dissolved or suspended in an appropriate solvent [either physiological saline or a 0.5% CMC (carboxymethyl cellulose) solution] and administered orally to the mice of the test groups in the dose specified in the following Table 6. The mice in a control group were given only the solvent without any active compound, administered in a similar way. Immediately after administration,2 mg/kg of reserpine were administered subcutaneously to every mouse. After 90 minutes, it was determined how much the eyelids had closed (degree of ptosis) by bringing the mouse out of its cage and observing the shape of the eye.
From the scores obtained, the inhibition rate at each dose level was calculated from the following equation: [formula]

Data set [4] relates to mice. The data set can be described thus: Acute toxicity. The note with it: 75 mg/kg, 5 days observation. Format: in vivo, mouse. As to the method:
Each of the compounds of Examples 3 and 4 was suspended in a 0.5% CMC solution, and the suspension was administered to mice in an amount sufficient to provide a dose of active compound of 75 mg/kg.

Data set [5] has as its system blood viscosity increase resulting from cerebral ischemia. Nature of the data set: Inhibition of blood viscosity increase resulting from cerebral ischemia. The note with it: oral; one hour after carotid ligation; shear 37.5, 75, 150 and 375/sec. Format: in vivo, rat (Wistar strain). The procedure: The test animals used were adult male rats of the Wistar strain. Each rat was administered orally either a solution of 3-(3-quinuclidinyloxy)isoxazole hydrochloride (the compound prepared as described in Example 4) in suspension in a 0.5% CMC vehicle or the vehicle itself. Immediately after administration, 40 mg/kg of pentobarbital was administered intraperitoneally for anesthesia. The rat was fixed at the dorsal position, and 0.6 ml of a blood sample was taken from the common jugular vein on one side. The viscosity of each sample was measured using a viscometer (Biorheolyzer, a trade name for product of Tokyo Keiki) at shear values of 37.5/sec, 75/sec, 150/sec and 375/sec. 0.5 ml of blood was then taken from the other side and its viscosity was measured in the same way.
After the first two samples had been taken, the carotid arteries on both sides of each animal were ligated. One hour after ligation, in the case of the control animals (administered only the vehicle), the blood viscosity values had increased by between 5 and 20% at every shear rate (the slower the shear rate, the higher the viscosity).

Data set [6] has as its target T3, 5-HT3 receptors (Rattus norvegicus, UniProt P35563).
T3 sequence (P35563 24-483): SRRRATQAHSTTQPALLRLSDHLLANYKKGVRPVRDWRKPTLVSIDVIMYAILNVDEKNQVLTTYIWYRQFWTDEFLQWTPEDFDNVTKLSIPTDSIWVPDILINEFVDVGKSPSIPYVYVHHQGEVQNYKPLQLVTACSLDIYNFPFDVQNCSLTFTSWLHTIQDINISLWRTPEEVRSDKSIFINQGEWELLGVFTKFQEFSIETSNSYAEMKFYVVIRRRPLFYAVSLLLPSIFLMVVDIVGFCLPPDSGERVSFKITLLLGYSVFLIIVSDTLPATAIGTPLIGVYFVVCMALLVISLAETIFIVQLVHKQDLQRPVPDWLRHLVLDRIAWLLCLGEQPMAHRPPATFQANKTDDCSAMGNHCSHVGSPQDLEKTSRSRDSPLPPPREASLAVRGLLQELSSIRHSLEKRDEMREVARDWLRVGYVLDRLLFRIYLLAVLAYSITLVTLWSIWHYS
Nature of the data set: biochemical. It is filed as binding. The procedure:
A membranous fraction prepared from the cerebral cortex of rats was incubated with the test compound and with ^3 H-GR65630 (to a final concentration of 1 nM, as a ligand to the 5-HT3 receptors) at 37° C. for 45 minutes. At the end of this time, the samples were filtered. The ^3 H radioactivity bound to the filter paper was determined by a scintillation counter as in Experiment 1.

The test system of data set [7] is isolated guinea pig ileum (selective 5-HT3 agonist 2-methyl-5-HT). Nature of the data set: Effects upon the isolated guinea pig ileum: inhibition of contraction by 2-methyl-5-HT. The note with it: for Inhibition (%): 10^-6 M, contractile force by 2-methyl-5-HT, 30 minutes after addition. As to the method: The ileum isolated from a guinea pig was hung in a Magnus cup filled with Tyrode's solution. The contractile force exerted by the ileum on the application of a selective 5-HT3 agonist, 2-methyl-5-HT, was determined using an isometric transducer. A test compound was then added to the bath and the contractile force was again measured 30 minutes after the addition. The inhibition rate on the contractile force was calculated.

The mark [8] stands for this setting: 3H-pirenzepine 1 nM, rat cerebral cortex membrane, 30° C., 60 minutes, read-out: IC50 Pirenzp (a) (cerebral cortex).
Setting [9] is: ratio IC50 QNB (heart) / IC50 Pirenzp (cerebral cortex).
The mark [10] stands for this setting: 3H-GR65630 1 nM, rat cerebral cortex membrane, 37° C., 45 minutes.

Each structure is given as a SMILES string. Where a name gives a salt, the structure may show the parent alone. Read-outs that look alike come from different tables or passages of the source.

For `CN1CCC(Oc2noc3ccc(Cl)cc23)CC1.Cl` [Example A1, 5-Chloro-3-(1-methyl-4-piperidyloxy)-1,2-benzisoxazole hydrochloride], the IC50 turned out to be 1900 nM in data set [1] (setting [8]) and 41000 nM in data set [2] (read-out: IC50 QNB (b) (heart)). Moreover, the “M1 selectivity (b)/(a)” value in data set [1] (setting [9]) is on record as 22.

As to `Cc1onc(OC2CN3CCC2CC3)c1Cl.Cl` (stereo not shown) [Example A2, 4-Chloro-5-methyl-3-(3-quinuclidinyloxy)isoxazole hydrochloride], in data set [3] (3 mg/kg po), the Assessment entry was “- (not more than 40%)” and the “Maximum inhibition rate (%)” value turned out to be 60%. For the same molecule, in data set [3] (30 mg/kg po), the Assessment result is reported as “+ (inhibition rates not less than 71%)” and the “Maximum inhibition rate (%)” value is reported as 100%. In addition, in data set [4], the adverse symptoms result is recorded as “nor did the mice exhibit any adverse symptoms” and the deaths entry is reported as “no deaths were observed”.

For the molecule `Cl.c1cc(OC2CN3CCC2CC3)no1` (stereo not shown) [Example A3, 3-(3-Quinuclidinyloxy)isoxazole hydrochloride], the Assessment result in data set [3] (1 mg/kg po) is “- (not more than 40%)”; in data set [3] (3 mg/kg po) it was “± (from 41% to 70%)”; in data set [3] (10 mg/kg po) it was “+ (inhibition rates not less than 71%)”; in data set [3] (30 mg/kg po), “+ (inhibition rates not less than 71%)”. Also, the “Maximum inhibition rate (%)” value amounted to 21% in data set [3] (1 mg/kg po), 57% in data set [3] (3 mg/kg po), 86% in data set [3] (10 mg/kg po) and 100% in data set [3] (30 mg/kg po). Further, in data set [5], the “inhibition of blood viscosity increase” value is reported as “the increase was significantly inhibited at every shear rate”. For the same molecule, the adverse symptoms entry in data set [4] is “nor did the mice exhibit any adverse symptoms”. The deaths result in data set [4] was “no deaths were observed”.

`Cc1cc(OC2CN3CCC2CC3)no1.Cl` (stereo not shown) [Example A4, 5-Methyl-3-(3-quinuclidinyloxy)isoxazole hydrochloride]: the Assessment result is “± (from 41% to 70%)” in data set [3] (30 mg/kg po) and “+ (inhibition rates not less than 71%)” in data set [3] (100 mg/kg po). For the same molecule, the “Maximum inhibition rate (%)” value in data set [3] (30 mg/kg po) is given as 45%; in data set [3] (100 mg/kg po), 80%.

The molecule `Cl.Clc1c(OC2CN3CCC2CC3)noc1-c1ccccc1` (stereo not shown) [Example A5, 4-Chloro-3-(3-quinuclidinyloxy)-5-phenylisoxazole hydrochloride] showed an IC50 in data set [6] of 220 nM. Moreover, in data set [7], the “5-HT3 antagonist activity (in words)” value is reported as “as potent an antagonist as ondansetron” and the “Inhibition (%)” value is 82%.

`Clc1ccc2onc(OC3CN4CCC3CC4)c2c1` (stereo not shown) [Example A6, 5-Chloro-3-(3-quinuclidinyloxy)-1,2-benzisoxazole] registered an IC50 in data set [6] (setting [10]) of 180 nM.

For `Clc1ccc(-c2cc(OC3CN4CCC3CC4)no2)cc1` (stereo not shown) [Example A7, 5-(p-Chlorophenyl)-3-(3-quinuclidinyloxy)isoxazole hydrochloride], half-maximal inhibition in data set [6] (IC50) required 320 nM.

`Clc1c(OC2CCCNC2)noc1-c1ccccc1` (stereo not shown) [Example A8, 4-Chloro-5-phenyl-3-(3-piperidyloxy)isoxazole hydrochloride]: the half-inhibitory concentration (IC50) in data set [6] (setting [10]) worked out at 260 nM.

In data set [6], `c1csc(-c2cc(OC3CN4CCC3CC4)no2)c1` (stereo not shown) [Example A9, 3-(3-Quinuclidinyloxy)-5-(2-thienyl)isoxazole hydrochloride] yielded a 50% inhibitory concentration (IC50) of 150 nM.

With `O=C1CCCN1CC#CCN1CCCC1` [Example B1, Oxotremorine], the half-maximal inhibitory concentration (IC50) in data set [1] was 1300 nM; in data set [2], 1200 nM. For the same molecule, the “M1 selectivity (b)/(a)” value in data set [1] was determined as 0.9.

Consider `CCN1C(=O)CC2(CCN(C)CC2)C1=O` [Example B2], for which the half-inhibitory concentration (IC50) in data set [1] (setting [8]) was 3100 nM; in data set [2] (read-out: IC50 QNB (b) (heart)), 21000 nM. Also, the “M1 selectivity (b)/(a)” value in data set [1] (setting [9]) was determined as 6.8.

On to `CC1OC2(CS1)CN1CCC2CC1` (stereo not shown) [Example B3], for which the IC50 in data set [1] (setting [8]) was 3600 nM; in data set [2] (3H-quinuclidinyl benzylate 0.12 nM, rat heart membrane, 30° C., 120 minutes, read-out: IC50 QNB (b) (heart)), 14000 nM.

Take `Cc1nccn1CC1CCc2c(c3ccccc3n2C)C1=O` (stereo not shown) [Example B5, Ondansetron, reference compound]: the “Inhibition (%)” value in data set [7] is given as 79%.

A word on the IC50: it is the point on the concentration scale where inhibition reaches its midpoint.

Values taken from patent US5643923A, “Quinuclidinyloxy-isoxazole compounds and their therapeutic uses” (Sankyo Company, Limited, priority 1990, dated 1997).
